In patent publication US20040084867A1, “Individualization of therapy with anticoagulants” (Xanthus Life Sciences, Inc., priority 2002, published 2004):
Read-outs that look alike come from different tables or passages of the source. Marks after values point to notes of the source that are not given here.

Assays:
1X-Ab = assay: Competitive antigen ELISA, cross-reactivity of 1X-Ab; format: binding, rabbit; details: for % Cross-Reaction, 1X-Ab: competitive antigen ELISA, 0 = absence of inhibition or inhibition no higher than 40% at highest concentration tested (5 × 10^−6 M); for [1X] × 10^6 (M), 1X concentration determined by ELISA: fixed 1X 3×10^−6 M
Protocol: (§1) Buffers and water without additives are filtered through millipore filters and kept for 1 week. BSA, antibodies, Tween™ 20 and horse radish peroxidase conjugates are added to these buffers and water just prior to use. Urine samples are usually collected 4 hours after drinking a cup of coffee (instant or brewed with approximately 100 mg of caffeine per cup) and stored at −80° C. The urine samples are diluted 10 times with sodium phosphate buffer (620 mosm, pH 7.50) and are subsequently diluted with water to give- concentrations of AAMU and 1X no higher than 3×10^−6 M in the ELISA. All the pipettings are done with an eight-channel pipette, except those of the antibody and sample solutions. Starting with the last well, 100 μL of a carbonate buffer (100 mM, pH 9.6) containing 2.5 μg mL^−1 antibodies are added to each well. After 90 min. at room temperature, the wells are washed three times with […] of TPB: isotonic sodium phosphate buffer (310 mosm, pH 7.50) containing 0.05% Tween™ 20.
(§2) After the initial wash, unoccupied sites are blocked by incubation for 90 min. at room temperature with 100 μL TBP containing 3% BSA. The wells are washed four times with 100 μL TPB. […] The microplate is gently shaken with an orbital shaker at room temperature for 3-4 hours. The wells are washed three times with 100 μL TPB containing 1% BSA and three times with water containing 0.05% Tween™ 20. To the washed plate is added 150 μL of a substrate buffer composed of citric acid (25 mM) and sodium phosphate dibasic buffer (50 mM, pH 5.0) containing 0.06% hydrogen peroxide and 0.04% o-phenylenediamine hydrochloride.
(§3) Buffers and water without additives were filtered through millipore filters and kept for 1 week. BSA, antibodies, Tween™ 20 and horse radish peroxidase conjugates were added to these buffers and water just prior to use. Urine samples were usually collected 4 hours after drinking a cup of coffee (instant or brewed with approximately 100 mg of caffeine per cup) and stored at −80° C. They were diluted 10 times with sodium phosphate buffer (620 mosm, pH 7.50) and were subsequently diluted with water to give concentrations of AAMU and 1X no higher than 3×10^−6 M in the ELISA. All the pipettings were done with an eight-channel pipette, except those of the antibody and sample solutions. Starting with the last well, 100 μL of a carbonate buffer (100 mM, pH 9.6) containing 2.5 μg mL^−1 antibodies was pipetted. After 90 min. at room temperature, the wells were washed three times with 100 μL of TPB: isotonic sodium phosphate buffer (310 mosm, pH 7.50) containing 0.05% Tween™ 20.
(§4) After the initial wash, unoccupied sites were blocked by incubation for 90 min. at room temperature with 100 μL TBP containing 3% BSA. The wells were washed four times with 100 μL TPB. […] The microplate was gently shaken with an orbital shaker at room temperature for 3-4 hours. The wells were washed three times with 100 μL with TPB containing 1% BSA and three times with water containing 0.05% Tween™ 20. To the washed plate was added 150 μL of a substrate buffer composed of citric acid (25 mM) and sodium phosphate dibasic buffer (50 mM, pH 5.0) containing 0.06% hydrogen peroxide and 0.04% o-phenylenediamine hydrochloride. After 20 min. at room temperature with shaking, the reaction was stopped with 50 μL of 2.5 N HCl.

AAMU-Ab = assay: Competitive antigen ELISA, cross-reactivity of AAMU-Ab; format: binding, rabbit; details: 0 = absence of inhibition or inhibition no higher than 40% at highest concentration tested (5 × 10^−6 M)
Protocol: as §1, §2, §3, §4

coronary artery patency = details: Heparin-Aspirin Reperfusion Trial, after TPA; aspirin 80 mg per day; cited from earlier work
CYP2C9 = details: cited from earlier work
[1] = test system: individuals with acute myocardial infarction; details: in vivo; cited from earlier work
[2] = test system: individuals with evolving myocardial infarction; details: cited from earlier work; for combined incidence of death or nonfatal hemorrhagic stroke: TPA group vs groups receiving streptokinase
[3] = test system: individuals with acute myocardial infarction; details: cited from earlier work
[4] = test system: slow and fast acetylators; details: cited from earlier work
[5] = test system: surgical and medical individuals; details: individuals with hip fracture, begun preoperatively; cited from earlier work
[6] = cited from earlier work
[7] = test system: individuals with deep vein thrombosis; details: Hull 1979; proximal DVT, 3 months; heparin 5,000 units sc every 12 hours, sodium warfarin INR 2.5 to 4.5; cited from earlier work
[8] = test system: poor vs. extensive metabolizers; details: cited from earlier work
[9] = individuals who died before heparin was started excluded

Cn1cnc2c1c(=O)[nH]c(=O)n2C [3,7-Dimethyl Xanthine (Theobromine), 3,7-Dimethyl Xanthine]
% Cross-Reaction, 1X-Ab (1X-Ab): 0%
% Cross-Reaction, AAMU-Ab (AAMU-Ab): 0%

Cn1c(=O)[nH]c2nc[nH]c2c1=O [1-Methyl Xanthine (1X), 1-Methyl Xanthine]
% Cross-Reaction, 1X-Ab (1X-Ab): 100%
% Cross-Reaction, AAMU-Ab (AAMU-Ab): 0%

CC(=O)Oc1ccccc1C(=O)O [aspirin]
Coronary artery patency at 18 hours (coronary artery patency): 52%

CC(=O)C[C@@H](c1ccccc1)c1c(O)c2ccccc2oc1=O [S-warfarin]
↓ in CLpo,u (unbound oral clearance) (CYP2C9; 47 Japanese, an individual with *3/*3): 90% ↓ in CLpo,u for (S)-warfarin in an individual
↓ in CLpo,u (unbound oral clearance) (CYP2C9; 86 Japanese, 3 individuals with *1/*3): 63% ↓ in CLpo,u for (S)-warfarin in 3 individuals

Cn1c(=O)[nH]c2ncn(C)c2c1=O [1,7-Dimethyl Xanthine (Paraxanthine), 1,7-Dimethyl Xanthine]
% Cross-Reaction, 1X-Ab (1X-Ab): 0.5%
% Cross-Reaction, AAMU-Ab (AAMU-Ab): 0%

O=c1[nH]c(=O)c2[nH]cnc2[nH]1 [Xanthine]
% Cross-Reaction, 1X-Ab (1X-Ab): 0%
% Cross-Reaction, AAMU-Ab (AAMU-Ab): 0^a %

Cn1c(=O)c2c(ncn2C)n(C)c1=O [1,3,7-Trimethyl Xanthine (Caffeine), 1,3,7-Trimethyl Xanthine]
% Cross-Reaction, 1X-Ab (1X-Ab): 0%
% Cross-Reaction, AAMU-Ab (AAMU-Ab): 0%

Cc1nc2[nH]c(=O)[nH]c(=O)c2[nH]1 [8-Methyl Xanthine]
% Cross-Reaction, 1X-Ab (1X-Ab): 0%
% Cross-Reaction, AAMU-Ab (AAMU-Ab): 0%

streptokinase
cerebral hemorrhage rate [1]: 0.24%
stroke rate [1]: 1.04%
combined incidence of death or nonfatal hemorrhagic stroke [2]: 7.5%
mortality rate ([3]; all individuals): 9.2%
mortality rate [3, 9]: 6.2%

Cn1c(=O)c2[nH]cnc2n(C)c1=O [1,3-Dimethyl Xanthine (Theophylline), 1,3-Dimethyl Xanthine]
% Cross-Reaction, 1X-Ab (1X-Ab): 0.2%
% Cross-Reaction, AAMU-Ab (AAMU-Ab): 0%

CC(=O)Nc1c(N)n(C)c(=O)[nH]c1=O [5-Acetamino-6-amino-1-methyluracil]
% Cross-Reaction, 1X-Ab (1X-Ab): 0%
% Cross-Reaction, AAMU-Ab (AAMU-Ab): 100%

Cn1c(=O)[nH]c2[nH]c(=O)n(C)c2c1=O [1,7-Dimethyluric acid]
% Cross-Reaction, 1X-Ab (1X-Ab): 0%
% Cross-Reaction, AAMU-Ab (AAMU-Ab): 0%

O=c1[nH]cnc2nc[nH]c12 [Hypoxanthine]
% Cross-Reaction, 1X-Ab (1X-Ab): 0%
% Cross-Reaction, AAMU-Ab (AAMU-Ab): 0%

Cn1c(=O)[nH]c2[nH]c(=O)[nH]c2c1=O [1-Methyluric acid]
[1X] × 10^6 (M), 1X concentration determined by ELISA (1X-Ab; 1U:1X ratio 0.50): 2.75 × 10^6 (M)
[1X] × 10^6 (M), 1X concentration determined by ELISA (1X-Ab; 1U:1X ratio 1.00): 3.25 × 10^6 (M)
[1X] × 10^6 (M), 1X concentration determined by ELISA (1X-Ab; 1U:1X ratio 1.50): 3.25 × 10^6 (M)
[1X] × 10^6 (M), 1X concentration determined by ELISA (1X-Ab; 1U:1X ratio 2.00): 3.60 × 10^6 (M)
apparent increase of 1X concentration (1X-Ab; 1U:1X ratio 2.5): 22%
[1X] × 10^6 (M), 1X concentration determined by ELISA (1X-Ab; 1U:1X ratio 2.50): 3.65 × 10^6 (M)
apparent increase of 1X concentration (1X-Ab; 1U:1X ratio 3.0): 32%
[1X] × 10^6 (M), 1X concentration determined by ELISA (1X-Ab; 1U:1X ratio 3.00): 3.95 × 10^6 (M)
[1X] × 10^6 (M), 1X concentration determined by ELISA (1X-Ab; 1U:1X ratio 4.00): 4.20 × 10^6 (M)
[1X] × 10^6 (M), 1X concentration determined by ELISA (1X-Ab; 1U:1X ratio 5.00): 4.30 × 10^6 (M)
[1X] × 10^6 (M), 1X concentration determined by ELISA (1X-Ab; 1U:1X ratio 6.00): 4.50 × 10^6 (M)
[1X] × 10^6 (M), 1X concentration determined by ELISA (1X-Ab; 1U:1X ratio 8.00): 4.30 × 10^6 (M)
% Cross-Reaction, 1X-Ab (1X-Ab): 11%
% Cross-Reaction, AAMU-Ab (AAMU-Ab): 0%

Cn1cnc2[nH]c(=O)[nH]c(=O)c21 [7-Methyl Xanthine]
% Cross-Reaction, 1X-Ab (1X-Ab): 0%
% Cross-Reaction, AAMU-Ab (AAMU-Ab): 0%

Nc1ccc(S(=O)(=O)c2ccc(N)cc2)cc1 [dapsone]
adverse reactions ([4]; fast acetylators): 17%
adverse reactions ([4]; slow acetylators): 46%

Dextran
incidence of thrombosis [5]: 30%

Cn1c(=O)[nH]c(=O)c2[nH]cnc21 [3-Methyl Xanthine]
% Cross-Reaction, 1X-Ab (1X-Ab): 0%
% Cross-Reaction, AAMU-Ab (AAMU-Ab): 0%

vitamin K
duration of resistance to warfarin ([6]; doses of 5 mg or more): up to 1 week
time to evident partial reversal of the anticoagulant effect of warfarin ([6]; parenteral administration): ≤ 6 h

O=c1[nH]c(=O)c2[nH]c(=O)[nH]c2[nH]1 [Uric acid]
% Cross-Reaction, 1X-Ab (1X-Ab): 0%
% Cross-Reaction, AAMU-Ab (AAMU-Ab): 0%

Nc1nc2nc[nH]c2c(=O)[nH]1 [Guanine]
% Cross-Reaction, 1X-Ab (1X-Ab): 0%
% Cross-Reaction, AAMU-Ab (AAMU-Ab): 0%

CC(=O)CC(c1ccccc1)c1c(O)c2ccccc2oc1=O (stereo not drawn) [sodium warfarin]
rate of recurrent venous thromboembolism [7]: 0%

CC(=O)Nc1c(N)[nH]c(=O)[nH]c1=O [5-Acetamino-6-amino-uracil]
% Cross-Reaction, 1X-Ab (1X-Ab): 0%
% Cross-Reaction, AAMU-Ab (AAMU-Ab): 0.6%

COc1ccc2c(c1)[C@]13CCCC[C@@H]1[C@H](C2)N(C)CC3 [Dextromethorphan]
mean performance ±SE ([8]; EMs): 95±0.5%
mean performance ±SE ([8]; PMs): 86±6%

tissue plasminogen activator [TPA]
cerebral hemorrhage rate [1]: 0.66%
excess of episodes of presumed hemorrhagic strokes compared with streptokinase [1]: 4.2 per 1000
excess of strokes compared with streptokinase [1]: 3.5 per 1000
stroke rate [1]: 1.39%
combined incidence of death or nonfatal hemorrhagic stroke [2]: 6.6%
reduction of mortality compared with the streptokinase strategies ([2]; in vivo): 14%
mortality rate ([3]; all individuals): 8.7%
mortality rate [3, 9]: 5.9%

CC(=O)Nc1c(N)n(C)c(=O)n(C)c1=O [5-Acetamino-6-amino-1,3-dimethyluracil]
% Cross-Reaction, 1X-Ab (1X-Ab): 0%
% Cross-Reaction, AAMU-Ab (AAMU-Ab): 0%

O=c1cc[nH]c(=O)[nH]1 [Uracil]
% Cross-Reaction, 1X-Ab (1X-Ab): 0%
% Cross-Reaction, AAMU-Ab (AAMU-Ab): 0%
